Read-outs that look alike come from different tables or passages of the source.
How the values were obtained:
Format in all cases: physicochemical
[1] = Relative volatility: N2 passed through the absorbent, condensate analysed by GC and Karl Fischer titration; details: for Amine (in condensate) / Water (in condensate) / Condensate: 30 wt.-% aqueous solution, 50° C., 8 h; for Amine (in condensate) / Water (in condensate): 30 L (STP)/h N2; for Amine (in condensate): GC; for Water (in condensate): Karl Fischer titration; for Condensate: 200 mL, 30 L (STP)/h N2, condenser 5° C.; for Volatility (in words): 30 wt.-% aqueous solutions
Method: The volatility of amines TBAP-MPIP and TBAE-MPIP in 30 wt.-% aqueous solutions was compared to that of amines M3ETB, MDEA and TBAEPY in 30% wt.-% aqueous solutions.
A glass condenser, which was operated at 5° C., was attached to a glass cylinder with a thermostated jacket. The glass cylinder was thermostated to 50° C., and 200 mL of the absorbent were introduced for each test. Over an experimental duration of 8 h, 30 L (STP)/h of N2 were passed through the absorbent at ambient pressure. For each amine, the test was conducted three times. The condensate was analyzed by means of GC and Karl Fischer titration.

[2] = Acid gas loading capacity: H2S loading and stripping experiment; details: for H2S loading after loading / H2S loading after stripping / Cyclic H2S capacity: 30 wt.-% amine in water; for H2S loading after loading: 40° C., ambient pressure, 8 L (STP)/h H2S, about 4 h; for H2S loading after stripping: stripping at 80° C. with N2 8 L (STP)/h, 60 min; for Cyclic H2S capacity: difference of loading after loading and after stripping
Method: (§1) A loading experiment and subsequently a stripping experiment were conducted. A glass condenser, which was operated at 5° C., was attached to a glass cylinder with a thermostated jacket. Condensate obtained in the course of the experiment was returned to the glass cylinder so as to prevent distortion of the test results by partial evaporation of the absorbent.
(§2) The glass cylinder was initially charged with about 100 mL of unladen absorbent (30% by weight of amine in water). To determine the absorption capacity, at ambient pressure and 40° C., 8 L (STP)/h of CO2 or H2S were passed through the absorption liquid via a frit over a period of about 4 h. Subsequently, the loading of CO2 or H2S was determined as follows:
(§3) The determination of H2S was effected by titration with silver nitrate solution. For this purpose, the sample to be analyzed was weighed into an aqueous solution together with about 2% by weight of sodium acetate and about 3% by weight of ammonia. Subsequently, the H2S content was determined by a potentiometric turning point titration by means of silver nitrate. At the turning point, H2S is fully bound as Ag2S. The CO2 content was determined as total inorganic carbon (TOC-V Series Shimadzu).
(§4) The laden solution was stripped by heating an identical apparatus setup to 80° C., introducing the laden absorbent and stripping it by means of an N2 stream (8 L (STP)/h). After 60 min, a sample was taken and the CO2 or H2S loading of the absorbent was determined as described above.
(§5) The difference in the loading at the end of the loading experiment and the loading at the end of the stripping experiment gives the respective cyclic capacity.

[3] = Thermal stability of aqueous amine solutions with and without acid gas loading; details: 150° C., 125 h; for Ratio of Degradation Without Acid Gas Loading: closed cylinder, amine concentration by GC before and after; for Ratio of Degradation Without Acid Gas Loading / Ratio of Degradation With Acid Gas Loading: in water: MDEA 40, TBAP-MPIP 30, TBAE-MPIP 25, DEAE-EPIP 30 wt.-%; for Ratio of Degradation With Acid Gas Loading: 20 m^3 (STP)/tsolvent CO2 and 20 m^3 (STP)/tsolvent H2S
Method: The thermal stability of TBAP-MPIP (30 wt.-% in water) and TBAE-MPIP (25 wt.-% in water) was compared to both MDEA (40 wt.-% MDEA in water) and DEAE-EPIP (30 wt.-% DEAE-EPIP in water) with and without acid gas loading.
A cylinder (10 mL) was initially charged with the respective solution (8 mL) and the cylinder was closed. […] In the experiments conducted under acid gas loading, the acid gas loading of the solutions was 20 m^3 (STP)/tsolvent of CO2 and 20 m^3 (STP)/tsolvent of H2S. The decomposition level of the amines was calculated from the amine concentration measured by gas chromatography before and after the experiment.

[4] = pKA value by titration with hydrochloric acid; details: for Second pKA value (in words) / pKa: 20° C.; for pKa: aqueous solution, aqueous solution 0.005 mol amine per liter, HCl 0.1 mol/L; for First pKA value (in words): at relatively low temperatures (20° C.)
[5] = Acid gas loading capacity: CO2 loading and stripping experiment; details: for CO2 loading after loading / CO2 loading after stripping / Cyclic CO2 capacity: 30 wt.-% amine in water; for CO2 loading after loading: 40° C., ambient pressure, 8 L (STP)/h CO2, about 4 h; for CO2 loading after stripping: stripping at 80° C. with N2 8 L (STP)/h, 60 min; for Cyclic CO2 capacity: difference of loading after loading and after stripping; for Acid gas loading capacities (in words): CO2 and H2S, absorbents 30 wt.-% in water, compared with TBAEE and MDEA
Method: as §1, §2, §3, §4, §5

| Compound | Amine (in condensate) [1] | Water (in condensate) [1] | Condensate [1] | H2S loading after loading [2] | H2S loading after stripping [2] | Cyclic H2S capacity [2] | Volatility (in words) [1] | Stability in aqueous solutions (in words) [3] | Ratio of Degradation Without Acid Gas Loading [3] | Ratio of Degradation With Acid Gas Loading [3] | Second pKA value (in words) [4] | pKa ([4]; read-out: pKA 1) | pKa ([4]; read-out: pKA 2) | pKa ([4]; read-out: pKA 3) | First pKA value (in words) [4] | CO2 loading after loading [5] | CO2 loading after stripping [5] | Cyclic CO2 capacity [5] | Acid gas loading capacities (in words) [5] | Cyclic H2S capacity (in words) ([2]; 30 wt.-% in water, comparison with TBAP-MPIP and TBAE-MPIP) |
| --- | --- | --- | --- | --- | --- | --- | --- | --- | --- | --- | --- | --- | --- | --- | --- | --- | --- | --- | --- | --- |
| CC(C)(C)NCCN1CCCC1=O [TBAEPY, 1-[2-(tert-butylamino)ethyl]pyrrolidin-2-one, reference compound] | 0.2 wt % | 99.5 wt % | 28.8 mL | – | – | – | – | – | – | – | – | – | – | – | – | – | – | – | – | – |
| CN1CCN(CCNC(C)(C)C)CC1 [TBAE-MPIP, 2-(4-methylpiperazin-1-yl)ethyl-tert-butylamine] | 0.7 wt % | 99.3 wt % | 29.28 mL | 1.62 mol H2S/molamine | 0.35 mol H2S/molamine | 1.27 mol H2S/molamine | suitably low volatility | comparable to MDEA, and higher than DEAE-EPIP | 1.00 | 0.88 | close to the pKa value of MDEA | 10 | 8.82 | 5.47 | high first pKA values | 1.46 mol CO2/molamine | 0.22 mol CO2/molamine | 1.24 mol CO2/molamine | significantly higher acid gas loading capacities than absorbents based on TBAEE and MDEA | – |
| COCCOCCOCCNC(C)(C)C [M3ETB, (2-(2-(2-tert-butylaminoethoxy)ethoxy)ethyl)methyl ether, reference compound] | 0.7 wt % | 99.2 wt % | 30.1 mL | – | – | – | – | – | – | – | – | – | – | – | – | – | – | – | – | – |
| CCN(CC)CCN1CCN(CC)CC1 [DEAE-EPIP, 2-(4-ethylpiperazin-1-yl)ethyl-diethylamine, reference compound] | – | – | – | 0.98 mol H2S/molamine | 0.31 mol H2S/molamine | 0.67 mol H2S/molamine | – | – | 1.00 | 0.77 | – | 10.3 | 8.61 | 6.2 | – | 1.48 mol CO2/molamine | 0.13 mol CO2/molamine | 1.35 mol CO2/molamine | – | significantly lower than the capacity of both TBAP-MPIP and TBAE-MPIP |
| CN1CCN(CCCNC(C)(C)C)CC1 [TBAP-MPIP, 3-(4-methylpiperazin-1-yl)propyl-tert-butylamine] | 0.3 wt % | 99.7 wt % | 30.3 mL | 1.48 mol H2S/molamine | 0.33 mol H2S/molamine | 1.15 mol H2S/molamine | suitably low volatility | comparable to MDEA, and higher than DEAE-EPIP | 0.99 | 0.91 | close to the pKa value of MDEA | 10.7 | 7.68 | 5.8 | high first pKA values | 1.41 mol CO2/molamine | 0.70 mol CO2/molamine | 0.71 mol CO2/molamine | significantly higher acid gas loading capacities than absorbents based on TBAEE and MDEA | – |
| CC(C)(C)NCCOCCO [TBAEE, 2-(2-tert-butylaminoethoxy)ethanol, reference compound] | – | – | – | – | – | – | – | – | – | – | – | – | – | – | – | 0.97 mol CO2/molamine | 0.24 mol CO2/molamine | 0.73 mol CO2/molamine | – | – |

— US12138583B2, “Process for removal of acid gases from a fluid stream with a liquid absorbent comprising a piperazine ring” (BASF SE, priority 2019, dated 2024)
